# Source: patent US4060608A, “Substituted hydroxymethyl benzodiazepines” (DDSA Pharmaceuticals, priority 1975, dated 1977)
# Where a name gives a salt, the structure may show the parent alone.
# How the values were obtained:
# Type in all cases: in vivo
# mice [1] = experiment: Rotarod test (neuro-muscular coordination), groups of 5 mice, 2 minute test periods for 5 hours after dosage
# Description: (§1) In humans, this retention of coordination would avoid or reduce the disadvantages of loss of concentration and related side effects commonly associated with benzodiazepine drugs. The observation of this effect was made on groups of five mice subjected to a Rotarod test.
# [2] = 7-day median lethal dose (LD50) in female mice; settings: mouse, in vivo, 7-day
# Description: (§2) The compounds in which R4 is furyl are of particular interest. Their psychotropic action is as disclosed above, but in addition their toxicity tends to be low. […] The higher toxicity at lower temperatures was thought to be caused by […] induced by the compound under test.
# female mice = experiment: 7-day median lethal dose (LD50) in female mice
# Description: as §2
# [3] = diuretic activity at sedating dose; settings: dose levels producing sedation (200 mg/Kg)
# Description: At a clinical dose level it can therefore be assumed that there would be no diuretic effect.
# mice [4] = experiment: observation of sedation/tranquillization and hypnotic state in the mice of the Rotarod test
# Description: as §1
# *2/5 mice in hypnotic state - not returned to rotarod.
smiles,measurement,setting,value
"CN(C)CCCN1c2ccccc2Sc2ccc(Cl)cc21 [Chlorpromazine, reference compound]",Total Number of Falls,"mice [1]; 15 mg./kg., 0 mins. after dosage, 5 mice",0
same,Total Number of Falls,"mice [1]; 15 mg./kg., 15 mins. after dosage, 5 mice",1
same,Total Number of Falls,"mice [1]; 15 mg./kg., 30 mins. after dosage, 5 mice",0
same,Total Number of Falls,"mice [1]; 15 mg./kg., 45 mins. after dosage, 5 mice",5
same,Total Number of Falls,"mice [1]; 15 mg./kg., 60 mins. after dosage, 5 mice",13
same,Total Number of Falls,"mice [1]; 15 mg./kg., 90 mins. after dosage, 5 mice",17
same,Total Number of Falls,"mice [1]; 15 mg./kg., 120 mins. after dosage, 5 mice",14
same,Total Number of Falls,"mice [1]; 15 mg./kg., 180 mins. after dosage, 5 mice",9
same,Total Number of Falls,"mice [1]; 15 mg./kg., 240 mins. after dosage, 5 mice",13
same,Total Number of Falls,"mice [1]; 15 mg./kg., 300 mins. after dosage, 5 mice",9
"CN(C1=Nc2ccc(Cl)cc2C(c2ccccc2)=[N+]([O-])C1)C(O)c1ccco1 (stereo not shown) [SH60, 7-chloro-2-(N-methyl-N-1-hydroxyfurfurylamino)-5-phenyl-3H-1,4-benzodiazepine-4-oxide hydrochloride]",LD50 at 168 h,[2]; at 23° C,900 mg/kg
same,LD50 at 168 h,[2]; at 30° C,1080 mg/kg
same,"toxicity, indicated by the LD50, compared with conventional and commercially used benzodiazepine drugs",female mice,significantly lower than that of conventional and commercially used benzodiazepine drugs
same,diuretic activity,[3],minimal diuretic activity
same,Total Number of Falls,"mice [1]; 20 mg./kg., 0 mins. after dosage, 5 mice",2
same,Total Number of Falls,"mice [1]; 20 mg./kg., 15 mins. after dosage, 5 mice",0
same,Total Number of Falls,"mice [1]; 20 mg./kg., 30 mins. after dosage, 5 mice",0
same,Total Number of Falls,"mice [1]; 20 mg./kg., 45 mins. after dosage, 5 mice",0
same,Total Number of Falls,"mice [1]; 20 mg./kg., 60 mins. after dosage, 5 mice",0
same,Total Number of Falls,"mice [1]; 20 mg./kg., 90 mins. after dosage, 5 mice",0
same,Total Number of Falls,"mice [1]; 20 mg./kg., 120 mins. after dosage, 5 mice",0
same,Total Number of Falls,"mice [1]; 20 mg./kg., 180 mins. after dosage, 5 mice",0
same,Total Number of Falls,"mice [1]; 20 mg./kg., 240 mins. after dosage, 5 mice",0
same,Total Number of Falls,"mice [1]; 20 mg./kg., 300 mins. after dosage, 5 mice",0
same,Total Number of Falls,"mice [1]; 100 mg./kg., 0 mins. after dosage, 5 mice",2
same,Total Number of Falls,"mice [1]; 100 mg./kg., 15 mins. after dosage, 5 mice",0
same,Total Number of Falls,"mice [1]; 100 mg./kg., 30 mins. after dosage, 5 mice",0
same,Total Number of Falls,"mice [1]; 100 mg./kg., 45 mins. after dosage, 5 mice",0
same,Total Number of Falls,"mice [1]; 100 mg./kg., 60 mins. after dosage, 5 mice",0
same,Total Number of Falls,"mice [1]; 100 mg./kg., 90 mins. after dosage, 5 mice",0
same,Total Number of Falls,"mice [1]; 100 mg./kg., 120 mins. after dosage, 5 mice",0
same,Total Number of Falls,"mice [1]; 100 mg./kg., 180 mins. after dosage, 5 mice",0
same,Total Number of Falls,"mice [1]; 100 mg./kg., 240 mins. after dosage, 5 mice",0
same,Total Number of Falls,"mice [1]; 100 mg./kg., 300 mins. after dosage, 5 mice",0
same,Total Number of Falls,"mice [1]; 200 mg./kg., 0 mins. after dosage, 5 mice",0
same,Total Number of Falls,"mice [1]; 200 mg./kg., 15 mins. after dosage, 5 mice",0
same,Total Number of Falls,"mice [1]; 200 mg./kg., 30 mins. after dosage, 5 mice",23
same,Total Number of Falls,"mice [1]; 200 mg./kg., 45 mins. after dosage, 5 mice",27
same,Total Number of Falls,"mice [1]; 200 mg./kg., 60 mins. after dosage, 5 mice",36
same,Total Number of Falls,"mice [1]; 200 mg./kg., 90 mins. after dosage, 5 mice",34
same,Total Number of Falls,"mice [1]; 200 mg./kg., 120 mins. after dosage, 5 mice",40
same,Total Number of Falls,"mice [1]; 200 mg./kg., 180 mins. after dosage, 2/5 mice in hypnotic state - not returned to rotarod",≥ 26
same,Total Number of Falls,"mice [1]; 200 mg./kg., 240 mins. after dosage, 2/5 mice in hypnotic state - not returned to rotarod",≥ 37
same,Total Number of Falls,"mice [1]; 200 mg./kg., 300 mins. after dosage, 2/5 mice in hypnotic state - not returned to rotarod",≥ 30
same,effect on muscular coordination,"mice [1]; mice, 20 mg/Kg",no apparent effect on muscular coordination
same,effect on muscular coordination,"mice [1]; mice, 100 mg/Kg",no apparent effect on muscular coordination
same,difficulty in maintaining balance on the rotating rod,"mice [1]; mice, 200 mg/Kg",all animals showed difficulty in maintaining balance on the rotating rod
same,neuro-muscular coordination,"mice [1]; mice, dose levels producing tranquilizing and sedative effects",normal neuro-muscular coordination
same,mice in hypnotic state - not returned to rotarod,"mice [4]; 200 mg./kg., footnote to 180, 240 and 300 mins. after dosage",2/5
same,sedation/tranquillization,"mice [4]; mice, 20 mg/Kg",apparent sedation/tranquillization
same,sedation/tranquillization,"mice [4]; mice, 100 mg/Kg",apparent sedation/tranquillization
same,sedation,"mice [4]; mice, 200 mg/Kg, after 30 minutes",marked sedation
